From patent publication US9018188B2, “MicroRNA inhibitors” (Ottawa Hospital Research Institute, priority 2011, dated 2015)

Test system: miR-133
Assay: miR-133 biosensor luciferase assay in C2C12 myoblast clones
Assay type: cell-based
Conditions: C2C12 clone A10, 48 hours in growth media; TGF-β 10 ng/mL, Insulin 850 nM, IBMX 0.5 mM, AICAR 0.5 mM, Dexamethasone 1
Source text: The design of the miR-133 biosensor is based on the principle that recognition of microRNA target sites in 3′UTR by microRNA/RISC leads to the inhibition of the translation of the target mRNAs. An artificial 3′UTR containing optimized miR-133 target sites in tandem was designed and cloned downstream of the open reading frames of firefly luciferases and GFP, which in together function as miR-133 biosensor (FIG. 9A), in a lentiviral vector. C2C12 myoblast clones were infected with lentiviruses carrying the miR-133 biosensor and selected for stable expression of the reporter construct. Activity of potential modulators or miR-133 is tested and read as a reverse correlation between miR-133 functionality and luciferase/GFP intensities. The construct can be used for live-cell imaging (in vitro and in vivo) and allows real-time detection.
Two miR-133 biosensor plasmids were constructed—pCMV-FireflyLuc_miR133TS_EF1_Puro and pCMV-RenillaLuc—133TS_EF1_Puro. In the pCMV-FireflyLuc—133TS_EF1_Puro plasmid, five tandem miR-133 target sites (miR133TS; 5′-[…]-3′, SEQ ID NO:22) was cloned downstream of a firefly luciferase ORF (with a stop codon), which is driven by a CMV promoter. These miR-133 target sites in whole serve as an artificial 3′ UTR of firefly luciferase transcript. The “GGACCAAA” sequence in the miR-133 target sites is complementary to the nucleotide positions 1-8 in miR-133a and miR-133b. The “TAGCTGGTTG” sequence in the miR-133 target sites is complementary to the nucleotide positions 13-22 in miR-133a and miR-133b. The remaining sequence “CCA” sequence in the middle will not anneal to the miR-133a or miR-133b, which will form a “bulge” structure when miR-133a/b anneal to the RNA transcript of miR-133 target sites. This fireflyLuc_miR133TS cassette was further cloned into a lentivirus backbone. In the pCMV-RenillaLuc—133TS_EF1_Puro plasmid, the firefly luciferase ORF was replaced by a renilla luciferase ORF. pCMV-FireflyLuc_miR133TS_EF1_Puro and pCMV-RenillaLuc—133TS_EF1_Puro plasmids were used to generate lentivirus particles in 293T cells, which were used to infect C2C12 myoblasts. Infected C2C12 myoblasts were selected by Puromycin (2 mg/L) and clonally expanded. C2C12 clones, C11 and C3, were used in subsequent experiments.
In one experiment, a C2C12 clone C11 (25,000 cells per well on 24-well plates), was transfected with 0.5 nM and 5 nM miR-133 mimetics (Life Technologies/Ambion), which can be processed into mature miR-133 in cells. […] Both experiments were performed with 6 replicates and Z-scores above 0.5 were achieved.
In one experiment, a C2C12 clone (A10; 25,000 cells per well in 24-well plates) was treated with drugs and biologics for 48 hours in growth media. […]

| effect on miR-133 by luciferase assays | Compound |
| --- | --- |
| enhancers of miR-133 | CC(C)Cn1c(=O)n(C)c(=O)c2[nH]cnc21 [IBMX, 3-isobutyl-1-methylxanthine, reference compound] |
| inhibitors of miR-133 | TGF-β |
| enhancers of miR-133 | NC(=O)c1ncn([C@@H]2O[C@H](CO)[C@@H](O)[C@H]2O)c1N [AICAR, 5′ amino-1-βD-ribofuranosyl-imidazole-4-carboxamide, reference compound] |
| inhibitors of miR-133 | Insulin |
